Test: pH adjustment of oritavancin/HPCD solution with 1N NaOH: visual observations
Format: physicochemical
Method: Reconstituting Orbactiv 400 mg (Oritavancin) in 20% w/v HPCD, diluting in saline then adjusting pH. The 50 mg/mL solution of oritavancin in 20% w/v HPCD (described in Table 3) was further diluted in 0.9% saline to 6 mg/mL in a small glass vial. The pH was adjusted using 1N NaOH. NaOH was added to the oritavancin solution in […] and vortexed. Visual observations and pH were recorded (Table 5).
Reconstituting Orbactiv 400 mg (Oritavancin) in 50% w/v HPCD aqueous solution, adjusting pH then diluting in saline. 6.269 g of HPCD was dissolved in 12.538 mL of water to make a 50% w/v solution (pH=7.23). Seven (7) mL of the 50% w/v solution was added to a 400 mg vial of Orbactiv for a target oritavancin concentration of 57.14 mg/mL. […] A 2 mL aliquot of 57.14 mg/mL was removed from the vial and placed in a small glass vial. The pH was adjusted to 6.5 using 1N NaOH. NaOH was added to the oritavancin solution in 5 μL increments and vortexed. Visual observations and pH were recorded (Table 6).
Reconstituting Orbactiv 400 mg (Oritavancin) in 50% w/v aqueous HPCD, adjusting pH then diluting in saline. 6.112 g of HPCD was dissolved in 12.224 mL of water to make a 50% w/v solution (pH=6.74). Seven (7) mL of the 50% w/v HPCD solution was added to a 400 mg vial of Orbactiv for a target oritavancin concentration of 57.14 mg/mL. […] A 3 mL aliquot of 57.14 mg/mL was removed from the vial and placed in a small glass vial. The pH was adjusted to 7 using 1N NaOH. NaOH was added to the oritavancin solution in 5 μL increments and vortexed. Visual observations and pH were recorded (Table 8).
Reconstituting Orbactiv 400 mg (Oritavancin) in 20% w/v aqueous HPCD, adjusting pH then diluting in saline. 3.555 g of HPCD was dissolved in 17.775 mL of water to make a 20% w/v solution (pH=6.88). Seven (7) mL of the 20% w/v HPCD solution was added to a 400 mg vial of Orbactiv for a target oritavancin concentration of 57.14 mg/mL. […] A 3 mL aliquot of 57.14 mg/mL was removed from the vial and placed in a small glass vial. The pH was adjusted to 7 using 1N NaOH. NaOH was added to the oritavancin solution in 5 μL increments and vortexed. Visual observations and pH were recorded. (Table 10).

CN[C@H](CC(C)C)C(=O)N[C@H]1C(=O)N[C@@H](CC(N)=O)C(=O)N[C@H]2C(=O)N[C@H]3C(=O)N[C@H](C(=O)N[C@H](C(=O)O)c4cc(O)cc(O)c4-c4cc3ccc4O)[C@H](O[C@H]3C[C@](C)(N)[C@@H](O)[C@H](C)O3)c3ccc(c(Cl)c3)Oc3cc2cc(c3O[C@@H]2O[C@H](CO)[C@@H](O)[C@H](O)[C@H]2O[C@H]2C[C@](C)(NCc3ccc(-c4ccc(Cl)cc4)cc3)[C@@H](O)[C@H](C)O2)Oc2ccc(cc2Cl)[C@H]1O [Oritavancin]
Observations (20% w/v HPCD reconstitution diluted in 0.9% saline, 1N NaOH 0 μL, pH 4.10, oritavancin 6.00 mg/mL): Clear, colorless solution | Observations (20% w/v HPCD reconstitution diluted in 0.9% saline, 1N NaOH 5 μL, pH 5.33, oritavancin 5.99 mg/mL): Clear, colorless solution | Observations (20% w/v HPCD reconstitution diluted in 0.9% saline, 1N NaOH 10 μL, pH 6.05, oritavancin 5.97 mg/mL): Clear, colorless solution | pH at which adjusting with 1N NaOH caused visible precipitation (20% w/v HPCD reconstitution diluted to 6 mg/mL in 0.9% saline): > 6 | Observations (50% w/v HPCD reconstitution (2 mL aliquot), 1N NaOH 0 μL, pH 4.08, oritavancin 57.14 mg/mL): Clear, colorless solution | Observations (50% w/v HPCD reconstitution (2 mL aliquot), 1N NaOH 5 μL, pH 4.26, oritavancin 57.10 mg/mL): Clear, colorless solution | Observations (50% w/v HPCD reconstitution (2 mL aliquot), 1N NaOH 10 μL, pH 4.56, oritavancin 57.06 mg/mL): Clear, colorless solution | Observations (50% w/v HPCD reconstitution (2 mL aliquot), 1N NaOH 15 μL, pH 4.90, oritavancin 57.02 mg/mL): Clear, colorless solution | Observations (50% w/v HPCD reconstitution (2 mL aliquot), 1N NaOH 20 μL, pH 5.19, oritavancin 56.98 mg/mL): Clear, colorless solution | Observations (50% w/v HPCD reconstitution (2 mL aliquot), 1N NaOH 25 μL, pH 5.39, oritavancin 56.94 mg/mL): Clear, colorless solution | Observations (50% w/v HPCD reconstitution (2 mL aliquot), 1N NaOH 30 μL, pH 5.65, oritavancin 56.90 mg/mL): Clear, colorless solution. | Observations (50% w/v HPCD reconstitution (2 mL aliquot), 1N NaOH 35 μL, pH 5.81, oritavancin 56.86 mg/mL): Clear, colorless solution. | Observations (50% w/v HPCD reconstitution (2 mL aliquot), 1N NaOH 40 μL, pH 6.10, oritavancin 56.82 mg/mL): Clear, colorless solution. | Observations (50% w/v HPCD reconstitution (2 mL aliquot), 1N NaOH 45 μL, pH 6.17, oritavancin 56.78 mg/mL): Clear, colorless solution. | Observations (50% w/v HPCD reconstitution (2 mL aliquot), 1N NaOH 50 μL, pH 6.33, oritavancin 56.74 mg/mL): Clear, colorless solution. | Observations (50% w/v HPCD reconstitution (3 mL aliquot), 1N NaOH 0 μL, pH 4.05, oritavancin 57.14 mg/mL): Clear, colorless solution. | Observations (50% w/v HPCD reconstitution (3 mL aliquot), 1N NaOH 5 μL, pH 4.28, oritavancin 57.04 mg/mL): Clear, colorless solution | Observations (50% w/v HPCD reconstitution (3 mL aliquot), 1N NaOH 10 μL, pH 4.44, oritavancin 56.94 mg/mL): Clear, colorless solution | Observations (50% w/v HPCD reconstitution (3 mL aliquot), 1N NaOH 15 μL, pH 4.68, oritavancin 56.84 mg/mL): Clear, colorless solution | Observations (50% w/v HPCD reconstitution (3 mL aliquot), 1N NaOH 20 μL, pH 4.93, oritavancin 56.74 mg/mL): Clear, colorless solution | Observations (50% w/v HPCD reconstitution (3 mL aliquot), 1N NaOH 25 μL, pH 5.11, oritavancin 56.64 mg/mL): Clear, colorless solution | Observations (50% w/v HPCD reconstitution (3 mL aliquot), 1N NaOH 30 μL, pH 5.23, oritavancin 56.54 mg/mL): Clear, colorless solution | Observations (50% w/v HPCD reconstitution (3 mL aliquot), 1N NaOH 35 μL, pH 5.36, oritavancin 56.44 mg/mL): Clear, colorless solution | Observations (50% w/v HPCD reconstitution (3 mL aliquot), 1N NaOH 40 μL, pH 5.48, oritavancin 56.35 mg/mL): Clear, colorless solution. | Observations (50% w/v HPCD reconstitution (3 mL aliquot), 1N NaOH 45 μL, pH 5.77, oritavancin 56.24 mg/mL): Clear, colorless solution | Observations (50% w/v HPCD reconstitution (3 mL aliquot), 1N NaOH 50 μL, pH 5.82, oritavancin 56.14 mg/mL): Clear, colorless solution | Observations (50% w/v HPCD reconstitution (3 mL aliquot), 1N NaOH 55 μL, pH 5.85, oritavancin 56.03 mg/mL): Clear, colorless solution | Observations (50% w/v HPCD reconstitution (3 mL aliquot), 1N NaOH 60 μL, pH 5.94, oritavancin 55.93 mg/mL): Clear, colorless solution | Observations (50% w/v HPCD reconstitution (3 mL aliquot), 1N NaOH 65 μL, pH 6.05, oritavancin 55.83 mg/mL): Clear, colorless solution. | Observations (50% w/v HPCD reconstitution (3 mL aliquot), 1N NaOH 70 μL, pH 6.15, oritavancin 55.72 mg/mL): Clear, colorless solution | Observations (50% w/v HPCD reconstitution (3 mL aliquot), 1N NaOH 75 μL, pH 6.20, oritavancin 55.61 mg/mL): Clear, colorless solution | Observations (50% w/v HPCD reconstitution (3 mL aliquot), 1N NaOH 80 μL, pH 6.23, oritavancin 55.50 mg/mL): Clear, colorless solution | Observations (50% w/v HPCD reconstitution (3 mL aliquot), 1N NaOH 85 μL, pH 6.34, oritavancin 55.39 mg/mL): Clear, colorless solution | Observations (50% w/v HPCD reconstitution (3 mL aliquot), 1N NaOH 90 μL, pH 6.32, oritavancin 55.28 mg/mL): Clear, colorless solution | Observations (50% w/v HPCD reconstitution (3 mL aliquot), 1N NaOH 95 μL, pH 6.38, oritavancin 55.17 mg/mL): Clear, colorless solution | Observations (50% w/v HPCD reconstitution (3 mL aliquot), 1N NaOH 100 μL, pH 6.46, oritavancin 55.07 mg/mL): Clear, colorless solution. | Observations (50% w/v HPCD reconstitution (3 mL aliquot), 1N NaOH 105 μL, pH 6.57, oritavancin 54.95 mg/mL): Clear, colorless solution | Observations (50% w/v HPCD reconstitution (3 mL aliquot), 1N NaOH 110 μL, pH 6.59, oritavancin 54.84 mg/mL): Clear, colorless solution | Observations (50% w/v HPCD reconstitution (3 mL aliquot), 1N NaOH 115 μL, pH 6.71, oritavancin 54.73 mg/mL): Clear, colorless solution | Observations (50% w/v HPCD reconstitution (3 mL aliquot), 1N NaOH 120 μL, pH 6.70, oritavancin 54.61 mg/mL): Clear, colorless solution | Observations (50% w/v HPCD reconstitution (3 mL aliquot), 1N NaOH 125 μL, pH 6.75, oritavancin 54.50 mg/mL): Clear, colorless solution. | Observations (50% w/v HPCD reconstitution (3 mL aliquot), 1N NaOH 130 μL, pH 6.90, oritavancin 54.38 mg/mL): Clear, colorless solution | Observations (50% w/v HPCD reconstitution (3 mL aliquot), 1N NaOH 135 μL, pH 6.90, oritavancin 54.26 mg/mL): Clear, colorless solution | Observations (50% w/v HPCD reconstitution (3 mL aliquot), 1N NaOH 140 μL, pH 6.96, oritavancin 54.14 mg/mL): Clear, colorless solution.
